Laboratory results from the supplement of paper PMC10883282.
± gives the standard deviation of the averaged measurements.

What was measured:
Assay in all cases: relative viability vs DMSO control (72 h) (fraction); higher = more viable cells
[1] = tested on: VA-ES-BJ
In short: (§1)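 Sarcoma cell lines went into 384-well plates at densities chosen to reach 80–90% confluence. After 24 h, each well received 2.5 µl of serially diluted compound, with source plates running from 10 mM to 0.0002 mM, and the plates were kept 72 h at 37 °C, 5% CO2, alongside 0.1% DMSO vehicle and a 5 µM positive control. Relative viability was derived from ATPLite readings as percent growth and averaged over up to triplicate wells. The data were then rescaled so that 1 stands for full and 0 for none.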

[2] = tested on: SK-LMS-1
In short: as §1

[3] = tested on: RD-ES
In short: as §1

[4] = tested on: SW982
In short: as §1

[5] = tested on: SW872
In short: as §1

[6] = tested on: HT1080
In short: as §1

[7] = tested on: KHOS-NP
In short: as §1

[8] = tested on: G401
In short: as §1

[9] = tested on: A204
In short: as §1

[10] = tested on: HS729
In short: as §1

[11] = tested on: SW684
In short: as §1

[12] = tested on: SK-ES-1
In short: as §1

`C=CC(=O)Nc1cccc(Nc2nc(Nc3ccc(N4CCN(C(C)=O)CC4)cc3OC)ncc2C(F)(F)F)c1` [Rociletinib] was tested, and the relative viability ([1]; 0.00017 µM) was 1.04 ± 0.071, the relative viability ([1]; 0.00051 µM) was 1.05 ± 0.025 and the relative viability ([1]; 0.00152 µM) was 1.02 ± 0.056. For the same compound, the relative viability ([1]; 0.00457 µM) was 1.03 ± 0.039, the relative viability ([1]; 0.01372 µM) was 0.981 ± 0.046 and the relative viability ([1]; 0.04115 µM) was 0.991 ± 0.043. For the same compound, the relative viability ([1]; 0.1235 µM) was 0.994 ± 0.02, the relative viability ([1]; 0.3704 µM) was 0.972 ± 0.043 and the relative viability ([1]; 1.111 µM) was 0.915 ± 0.038. For the same compound, the relative viability ([1]; 3.333 µM) was 0.648 ± 0.066, the relative viability ([1]; 10 µM) was 0.399 ± 0.021 and the relative viability ([2]; 0.00017 µM) was 1.07 ± 0.012. For the same compound, the relative viability ([2]; 0.00051 µM) was 1.089 ± 0.0035, the relative viability ([2]; 0.00152 µM) was 1.07 ± 0.058 and the relative viability ([2]; 0.00457 µM) was 1.07 ± 0.025. The relative viability ([2]; 0.01372 µM) was 1.05 ± 0.069, the relative viability ([2]; 0.04115 µM) was 1.03 ± 0.019 and the relative viability ([2]; 0.1235 µM) was 1.04 ± 0.012. The relative viability ([2]; 0.3704 µM) was 0.961 ± 0.06, the relative viability ([2]; 1.111 µM) was 0.847 ± 0.033 and the relative viability ([2]; 3.333 µM) was 0.638 ± 0.0093. It also gave a relative viability ([2]; 10 µM) of 0.373 ± 0.023, a relative viability ([3]; 0.00017 µM) of 0.965 ± 0.06 and a relative viability ([3]; 0.00051 µM) of 0.962 ± 0.013. For the same compound, the relative viability ([3]; 0.00152 µM) was 0.961 ± 0.012, the relative viability ([3]; 0.00457 µM) was 0.979 ± 0.025 and the relative viability ([3]; 0.01372 µM) was 0.967 ± 0.014. It also gave a relative viability ([3]; 0.04115 µM) of 1 ± 0.013, a relative viability ([3]; 0.1235 µM) of 0.937 ± 0.038 and a relative viability ([3]; 0.3704 µM) of 0.889 ± 0.0055. For the same compound, the relative viability ([3]; 1.111 µM) was 0.673 ± 0.027, the relative viability ([3]; 3.333 µM) was 0.453 ± 0.018 and the relative viability ([3]; 10 µM) was 0.125 ± 0.0072. For the same compound, the relative viability ([4]; 0.00017 µM) was 1.01 ± 0.021, the relative viability ([4]; 0.00051 µM) was 1.05 ± 0.028 and the relative viability ([4]; 0.00152 µM) was 1.08 ± 0.038. It also gave a relative viability ([4]; 0.00457 µM) of 1.07 ± 0.02, a relative viability ([4]; 0.01372 µM) of 1.05 ± 0.017 and a relative viability ([4]; 0.04115 µM) of 1.04 ± 0.033. It also gave a relative viability ([4]; 0.1235 µM) of 1.04 ± 0.076, a relative viability ([4]; 0.3704 µM) of 1.05 ± 0.037 and a relative viability ([4]; 1.111 µM) of 0.911 ± 0.022. It also gave a relative viability ([4]; 3.333 µM) of 0.6095 ± 0.00081, a relative viability ([4]; 10 µM) of 0.265 ± 0.013 and a relative viability ([5]; 0.00017 µM) of 1.1 ± 0.041. It also gave a relative viability ([5]; 0.00051 µM) of 1.08 ± 0.052, a relative viability ([5]; 0.00152 µM) of 1.07 ± 0.029 and a relative viability ([5]; 0.00457 µM) of 1.07 ± 0.011. For the same compound, the relative viability ([5]; 0.01372 µM) was 1.05 ± 0.034, the relative viability ([5]; 0.04115 µM) was 1.048 ± 0.0097 and the relative viability ([5]; 0.1235 µM) was 1.04 ± 0.027. For the same compound, the relative viability ([5]; 0.3704 µM) was 1.01 ± 0.043, the relative viability ([5]; 1.111 µM) was 0.89 ± 0.019 and the relative viability ([5]; 3.333 µM) was 0.713 ± 0.015. It also gave a relative viability ([5]; 10 µM) of 0.475 ± 0.023, a relative viability ([6]; 0.00017 µM) of 1.07 ± 0.019 and a relative viability ([6]; 0.00051 µM) of 1.06 ± 0.034. It also gave a relative viability ([6]; 0.00152 µM) of 1.05 ± 0.045, a relative viability ([6]; 0.00457 µM) of 1.06 ± 0.035 and a relative viability ([6]; 0.01372 µM) of 1.04 ± 0.04. The relative viability ([6]; 0.04115 µM) was 1.03 ± 0.044, the relative viability ([6]; 0.1235 µM) was 1.06 ± 0.049 and the relative viability ([6]; 0.3704 µM) was 1.1 ± 0.038. The relative viability ([6]; 1.111 µM) was 1.03 ± 0.018, the relative viability ([6]; 3.333 µM) was 0.997 ± 0.024 and the relative viability ([6]; 10 µM) was 0.454 ± 0.012. The relative viability ([7]; 0.00017 µM) was 1.09 ± 0.035, the relative viability ([7]; 0.00051 µM) was 1.1 ± 0.015 and the relative viability ([7]; 0.00152 µM) was 1.113 ± 0.0067. For the same compound, the relative viability ([7]; 0.00457 µM) was 1.09 ± 0.017, the relative viability ([7]; 0.01372 µM) was 1.09 ± 0.025 and the relative viability ([7]; 0.04115 µM) was 1.06 ± 0.022. It also gave a relative viability ([7]; 0.1235 µM) of 1.09 ± 0.023, a relative viability ([7]; 0.3704 µM) of 1.07 ± 0.017 and a relative viability ([7]; 1.111 µM) of 1.06 ± 0.036. The relative viability ([7]; 3.333 µM) was 1.025 ± 0.005, the relative viability ([7]; 10 µM) was 0.537 ± 0.028 and the relative viability ([8]; 0.00017 µM) was 1.04 ± 0.039. For the same compound, the relative viability ([8]; 0.00051 µM) was 1.07 ± 0.048, the relative viability ([8]; 0.00152 µM) was 1.04 ± 0.013 and the relative viability ([8]; 0.00457 µM) was 1.05 ± 0.061. The relative viability ([8]; 0.01372 µM) was 1.04 ± 0.054, the relative viability ([8]; 0.04115 µM) was 1.02 ± 0.052 and the relative viability ([8]; 0.1235 µM) was 1.05 ± 0.033. It also gave a relative viability ([8]; 0.3704 µM) of 1.02 ± 0.048, a relative viability ([8]; 1.111 µM) of 0.827 ± 0.029 and a relative viability ([8]; 3.333 µM) of 0.54 ± 0.014. The relative viability ([8]; 10 µM) was 0.211 ± 0.016, the relative viability ([9]; 0.00017 µM) was 1.06 ± 0.024 and the relative viability ([9]; 0.00051 µM) was 1.08 ± 0.042. The relative viability ([9]; 0.00152 µM) was 1.13 ± 0.069, the relative viability ([9]; 0.00457 µM) was 1.1 ± 0.081 and the relative viability ([9]; 0.01372 µM) was 1.12 ± 0.078. For the same compound, the relative viability ([9]; 0.04115 µM) was 1.04 ± 0.071, the relative viability ([9]; 0.1235 µM) was 1.11 ± 0.041 and the relative viability ([9]; 0.3704 µM) was 1.08 ± 0.012. It also gave a relative viability ([9]; 1.111 µM) of 1.03 ± 0.087, a relative viability ([9]; 3.333 µM) of 0.589 ± 0.023 and a relative viability ([9]; 10 µM) of 0.302 ± 0.032. For the same compound, the relative viability ([10]; 0.00017 µM) was 1.01 ± 0.07, the relative viability ([10]; 0.00051 µM) was 0.925 ± 0.032 and the relative viability ([10]; 0.00152 µM) was 0.9024 ± 0.0057. It also gave a relative viability ([10]; 0.00457 µM) of 0.9205 ± 0.0092, a relative viability ([10]; 0.01372 µM) of 0.902 ± 0.06 and a relative viability ([10]; 0.04115 µM) of 0.924 ± 0.026. For the same compound, the relative viability ([10]; 0.1235 µM) was 0.89 ± 0.086, the relative viability ([10]; 0.3704 µM) was 0.812 ± 0.051 and the relative viability ([10]; 1.111 µM) was 0.697 ± 0.022. It also gave a relative viability ([10]; 3.333 µM) of 0.573 ± 0.049, a relative viability ([10]; 10 µM) of 0.343 ± 0.021 and a relative viability ([11]; 0.00017 µM) of 1.13 ± 0.041. It also gave a relative viability ([11]; 0.00051 µM) of 1.16 ± 0.057, a relative viability ([11]; 0.00152 µM) of 1.16 ± 0.045 and a relative viability ([11]; 0.00457 µM) of 1.17 ± 0.022. The relative viability ([11]; 0.01372 µM) was 1.18 ± 0.015, the relative viability ([11]; 0.04115 µM) was 1.18 ± 0.076 and the relative viability ([11]; 0.1235 µM) was 1.14 ± 0.016. For the same compound, the relative viability ([11]; 0.3704 µM) was 1.1 ± 0.053, the relative viability ([11]; 1.111 µM) was 1.004 ± 0.0092 and the relative viability ([11]; 3.333 µM) was 0.908 ± 0.016. It also gave a relative viability ([11]; 10 µM) of 0.666 ± 0.046, a relative viability ([12]; 0.00017 µM) of 0.973 ± 0.033 and a relative viability ([12]; 0.00051 µM) of 1.02 ± 0.036. The relative viability ([12]; 0.00152 µM) was 1.03 ± 0.027, the relative viability ([12]; 0.00457 µM) was 1.06 ± 0.045 and the relative viability ([12]; 0.01372 µM) was 1 ± 0.073. The relative viability ([12]; 0.04115 µM) was 1.03 ± 0.071, the relative viability ([12]; 0.1235 µM) was 1.02 ± 0.025 and the relative viability ([12]; 0.3704 µM) was 0.943 ± 0.05. For the same compound, the relative viability ([12]; 1.111 µM) was 0.658 ± 0.07, the relative viability ([12]; 3.333 µM) was 0.232 ± 0.024 and the relative viability ([12]; 10 µM) was 0.0621 ± 0.0023.
